The values that follow come from ChEMBL document CHEMBL1201862, “PubChem BioAssay data set” (2004).

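Tested at 5 concentrations; 48 h exposure; 96-well plates; endpoints linearly interpolated, else capped at highest concentration. The concentration for 50% growth inhibition is given as GI50.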 Active and inactive are the calls of the source. No stated cut-off is given here; in the data, active = GI50 up to about 1.1 µM and inactive = higher. Square brackets hold non-standard residues; d marks the D form. Peptide text beside a SMILES is read from it. * marks the point of attachment. Phe(4-NO2) = N[CH](Cc1ccc([N+](=O)[O-])cc1)C(=O)O; Cbz = O=C(OCc1ccccc1)*

Test systems include EKVX; HCC 2998; HCT-15; MDA-MB-231; Malme-3M; NCI-H226; NCI-H23; NCI-H460; NCI/ADR-RES; OVCAR-5; OVCAR-8; RPMI-8226; SF-539; SNB-75; SR; T47D; UACC-62; SK-MEL-2.
Common to all, as to experiment: DTP human tumour cell line panel, 48 h

In general, GI50 refers to the concentration at which growth is held to half of that of the control. With `O=[N+]([O-])C(=C(Nc1cccc2cccnc12)Nc1cccc2cccnc12)C(Cl)=C(Cl)Cl`, the GI50 in the assay on EKVX is > 100 µM (inactive); in the assay with HCC 2998 it was > 61.7 µM (inactive); in the assay with HCT-15, 31.2 µM; in the assay with MDA-MB-231, 7.35 µM (inactive); with Malme-3M it was > 92.3 µM (inactive); with NCI-H226, 63.1 µM (inactive). In addition, the GI50 was 31.6 µM (inactive) in the assay with NCI-H23; 33.4 µM (inactive) with NCI-H460; 28.8 µM (inactive) in the assay with NCI/ADR-RES; > 100 µM (inactive) in the assay on OVCAR-5; 33.2 µM (inactive) in the assay on OVCAR-8; 23.6 µM (inactive) in the assay on RPMI-8226. The GI50 in the assay with SF-539 was > 100 µM (inactive); in the assay on SNB-75, > 100 µM (inactive); in the assay on SR it was > 100 µM (inactive); in the assay with T47D it was 29.1 µM (inactive); in the assay on UACC-62 it was 77.1 µM (inactive).
Take `CCCCCCC(N)(CCCCCC)C(=O)Nn1c(C)ccc1C`: the GI50 in the assay with EKVX is 12 µM (inactive); in the assay with HCC 2998, > 100 µM (inactive); in the assay on HCT-15, 24 µM; in the assay on MDA-MB-231, 88.3 µM (inactive); in the assay on Malme-3M, > 100 µM (inactive); in the assay on NCI-H226 it was 43.7 µM (inactive). In addition, the GI50 is 15.5 µM (inactive) with NCI-H23; 31.8 µM (inactive) in the assay on NCI-H460; 16 µM (inactive) in the assay on NCI/ADR-RES; > 100 µM (inactive) in the assay on OVCAR-5; 50 µM (inactive) with OVCAR-8; 13.6 µM (inactive) in the assay with RPMI-8226. Also, the GI50 in the assay on SK-MEL-2 was > 100 µM (inactive); in the assay on SNB-75, 29.4 µM (inactive); in the assay with SR, 29.9 µM (inactive); in the assay with T47D it was 13.6 µM (inactive); in the assay on UACC-62 it was 48 µM (inactive).
For the molecule `CCOC(=O)CCC(NC(=O)OCc1ccccc1)C(=O)NC(CCC(=O)OCC)C(=O)NC(CCC(=O)OCC)C(=O)NC(CCC(=O)OCC)C(=O)NC(CCC(=O)OCC)C(=O)NC(Cc1ccc([N+](=O)[O-])cc1)C(=O)NC(CCC(=O)OCC)C(=O)NC(CCC(=O)OCC)C(=O)NC(CCC(=O)OCC)C(=O)NC(CCC(=O)OCC)C(=O)NC(CCC(=O)OCC)C(=O)OCC` (stereo not drawn) (Cbz-E(OEt)E(OEt)E(OEt)E(OEt)E(OEt)[Phe(4-NO2)]E(OEt)E(OEt)E(OEt)E(OEt)E(OEt)-OEt; configuration not given here), the GI50 was > 50 µM (inactive) with EKVX; > 50 µM (inactive) with HCC 2998; greater than 50 µM with HCT-15; > 5 µM (inactive) in the assay with MDA-MB-231; > 50 µM (inactive) in the assay on Malme-3M; > 50 µM (inactive) in the assay with NCI-H226. In addition, the GI50 with NCI-H23, in the assay with NCI-H460, in the assay with NCI/ADR-RES, in the assay with OVCAR-5, with RPMI-8226 and in the assay on SF-539 was > 50 µM (inactive) each time. The GI50 in the assay on SK-MEL-2, in the assay with SNB-75, with SR, in the assay on T47D and with UACC-62 was > 50 µM (inactive) throughout.
Regarding `CC1(C)C2CCC1C(=O)C(C=O)C2` (stereo not drawn), the GI50 with HCC 2998 was > 100 µM (inactive); with HCT-15, 49.5 µM; with MDA-MB-231 it was > 100 µM (inactive); in the assay on Malme-3M, > 100 µM (inactive); with NCI-H226 it was > 100 µM (inactive); in the assay with NCI-H23 it was > 100 µM (inactive). In addition, the GI50 is > 100 µM (inactive) with NCI-H460; > 100 µM (inactive) with NCI/ADR-RES; > 100 µM (inactive) with OVCAR-5; > 100 µM (inactive) in the assay on OVCAR-8; > 100 µM (inactive) in the assay on RPMI-8226; 74.5 µM (inactive) with SF-539. Moreover, the GI50 was > 100 µM (inactive) in the assay on SK-MEL-2; 79.1 µM (inactive) with SNB-75; 3.16 µM (inactive) with SR; > 100 µM (inactive) in the assay on T47D; > 100 µM (inactive) with UACC-62.
